Results: PubChem BioAssay (NCI)
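Cells were grown in 96-well plates and exposed to each compound for 48 hours at five concentrations; endpoints were interpolated linearly between bracketing concentrations, or set to the highest concentration if not reached. TGI marks complete inhibition of growth.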

Assays:
Assay in all cases: NCI anticancer screen, dose series, 48 h
EKVX NSCLC = tested on: EKVX NSCLC
M14 melanoma = tested on: M14 melanoma
U251 CNS = tested on: U251 CNS
SNB-19 CNS = tested on: SNB-19 CNS
NCI-H226 lung = tested on: NCI-H226 lung
MDA-N = tested on: MDA-N
SK-MEL-2 melanoma = tested on: SK-MEL-2 melanoma
786-0 renal = tested on: 786-0 renal
UACC-62 melanoma = tested on: UACC-62 melanoma
BT-549 breast = tested on: BT-549 breast
UO-31 renal = tested on: UO-31 renal
OVCAR-8 ovarian = tested on: OVCAR-8 ovarian
SN12C renal = tested on: SN12C renal
HCC-2998 colon = tested on: HCC-2998 colon
HCT-116 colon = tested on: HCT-116 colon
HS 578T breast = tested on: HS 578T breast
RXF 393 renal = tested on: RXF 393 renal
SK-MEL-5 melanoma = tested on: SK-MEL-5 melanoma
TK-10 renal = tested on: TK-10 renal
SF-268 CNS = tested on: SF-268 CNS
OVCAR-4 ovarian = tested on: OVCAR-4 ovarian
ACHN renal = tested on: ACHN renal
SK-MEL-28 melanoma = tested on: SK-MEL-28 melanoma
KM12 colon = tested on: KM12 colon
A549 NSCLC = tested on: A549 NSCLC
MDA-MB-231 breast = tested on: MDA-MB-231 breast
NCI/ADR-RES ovarian = tested on: NCI/ADR-RES ovarian
T-47D breast = tested on: T-47D breast
OVCAR-5 ovarian = tested on: OVCAR-5 ovarian
PC-3 prostate = tested on: PC-3 prostate
SNB-75 CNS = tested on: SNB-75 CNS
COLO 205 colon = tested on: COLO 205 colon
NCI-H460 lung = tested on: NCI-H460 lung
OVCAR-3 ovarian = tested on: OVCAR-3 ovarian
HOP-62 NSCLC = tested on: HOP-62 NSCLC
DU-145 prostate = tested on: DU-145 prostate
NCI-H522 lung = tested on: NCI-H522 lung
LOX IMVI melanoma = tested on: LOX IMVI melanoma
SW-620 colon = tested on: SW-620 colon
CCRF-CEM leukemia = tested on: CCRF-CEM leukemia
CAKI-1 renal = tested on: CAKI-1 renal
MDA-MB-435 = tested on: MDA-MB-435
SF-539 CNS = tested on: SF-539 CNS
HOP-92 NSCLC = tested on: HOP-92 NSCLC
MCF7 breast = tested on: MCF7 breast
RPMI-8226 leukemia = tested on: RPMI-8226 leukemia
SK-OV-3 ovarian = tested on: SK-OV-3 ovarian
HCT-15 colon = tested on: HCT-15 colon
SF-295 CNS = tested on: SF-295 CNS
SR leukemia = tested on: SR leukemia
HL-60(TB) leukemia = tested on: HL-60(TB) leukemia
A498 renal = tested on: A498 renal
IGROV1 ovarian = tested on: IGROV1 ovarian
HT29 colon = tested on: HT29 colon
MALME-3M melanoma = tested on: MALME-3M melanoma
UACC-257 melanoma = tested on: UACC-257 melanoma
NCI-H23 lung = tested on: NCI-H23 lung
K-562 leukemia = tested on: K-562 leukemia

## COC(=O)C1(CCC(=O)N(C)c2ccccc2)NNC2C(=O)N(c3ccccc3)C(=O)C21 (centres undefined)
EKVX NSCLC
  TGI: > 10 µM
M14 melanoma
  TGI: > 10 µM
U251 CNS
  TGI: > 10 µM
SNB-19 CNS
  TGI: > 10 µM
NCI-H226 lung
  TGI: > 10 µM
MDA-N
  TGI: > 10 µM
SK-MEL-2 melanoma
  TGI: > 10 µM
786-0 renal
  TGI: > 10 µM
UACC-62 melanoma
  TGI: > 10 µM
BT-549 breast
  TGI: > 10 µM
UO-31 renal
  TGI: > 10 µM
OVCAR-8 ovarian
  TGI: > 10 µM
SN12C renal
  TGI: > 10 µM
HCC-2998 colon
  TGI: > 10 µM
HCT-116 colon
  TGI: > 10 µM
HS 578T breast
  TGI: > 10 µM
RXF 393 renal
  TGI: > 10 µM
SK-MEL-5 melanoma
  TGI: > 10 µM
TK-10 renal
  TGI: > 10 µM
SF-268 CNS
  TGI: > 10 µM
OVCAR-4 ovarian
  TGI: > 10 µM
ACHN renal
  TGI: > 10 µM
SK-MEL-28 melanoma
  TGI: > 10 µM
KM12 colon
  TGI: > 10 µM
A549 NSCLC
  TGI: > 10 µM
MDA-MB-231 breast
  TGI: > 10 µM
NCI/ADR-RES ovarian
  TGI: > 10 µM
T-47D breast
  TGI: > 10 µM
OVCAR-5 ovarian
  TGI: > 10 µM
PC-3 prostate
  TGI: > 10 µM
SNB-75 CNS
  TGI: > 10 µM
COLO 205 colon
  TGI: > 10 µM
NCI-H460 lung
  TGI: > 10 µM
OVCAR-3 ovarian
  TGI: > 10 µM
HOP-62 NSCLC
  TGI: > 10 µM
DU-145 prostate
  TGI: > 10 µM
NCI-H522 lung
  TGI: > 10 µM
LOX IMVI melanoma
  TGI: > 10 µM
SW-620 colon
  TGI: > 10 µM
CCRF-CEM leukemia
  TGI: > 10 µM
CAKI-1 renal
  TGI: > 10 µM
MDA-MB-435
  TGI: > 10 µM
SF-539 CNS
  TGI: > 10 µM
HOP-92 NSCLC
  TGI: > 10 µM
MCF7 breast
  TGI: > 10 µM
RPMI-8226 leukemia
  TGI: > 10 µM
SK-OV-3 ovarian
  TGI: > 10 µM
HCT-15 colon
  TGI: > 10 µM
SF-295 CNS
  TGI: > 10 µM
SR leukemia
  TGI: > 10 µM
HL-60(TB) leukemia
  TGI: > 10 µM
A498 renal
  TGI: > 10 µM
IGROV1 ovarian
  TGI: > 10 µM
HT29 colon
  TGI: > 10 µM
MALME-3M melanoma
  TGI: > 10 µM
UACC-257 melanoma
  TGI: > 10 µM
NCI-H23 lung
  TGI: > 10 µM

## COc1ccc(NC(=S)N/N=C(\c2ccccc2)c2ccccn2)cc1
EKVX NSCLC
  TGI: 2.65 µM
M14 melanoma
  TGI: 2.61 µM
U251 CNS
  TGI: 27.1 µM
SNB-19 CNS
  TGI: 18.5 µM
NCI-H226 lung
  TGI: 2.61 µM
MDA-N
  TGI: 16.2 µM
SK-MEL-2 melanoma
  TGI: 14.1 µM
786-0 renal
  TGI: 11.2 µM
UACC-62 melanoma
  TGI: 10.2 µM
BT-549 breast
  TGI: 20.2 µM
UO-31 renal
  TGI: 8.73 µM
OVCAR-8 ovarian
  TGI: 11.7 µM
SN12C renal
  TGI: 7.24 µM
HCC-2998 colon
  TGI: 22.3 µM
HCT-116 colon
  TGI: 13.7 µM
HS 578T breast
  TGI: 56.8 µM
RXF 393 renal
  TGI: 15.7 µM
SK-MEL-5 melanoma
  TGI: 6.53 µM
TK-10 renal
  TGI: 2.27 µM
SF-268 CNS
  TGI: 14.8 µM
OVCAR-4 ovarian
  TGI: 16.9 µM
ACHN renal
  TGI: 10.5 µM
SK-MEL-28 melanoma
  TGI: 18.5 µM
K-562 leukemia
  TGI: 3.06 µM
KM12 colon
  TGI: 15.9 µM
A549 NSCLC
  TGI: 14.2 µM
MDA-MB-231 breast
  TGI: 14.4 µM
NCI/ADR-RES ovarian
  TGI: 23.8 µM
T-47D breast
  TGI: 13.6 µM
OVCAR-5 ovarian
  TGI: 6.5 µM
PC-3 prostate
  TGI: 17.6 µM
COLO 205 colon
  TGI: 30.3 µM
NCI-H460 lung
  TGI: 6.47 µM
OVCAR-3 ovarian
  TGI: 13.2 µM
HOP-62 NSCLC
  TGI: 5.33 µM
DU-145 prostate
  TGI: 11.2 µM
NCI-H522 lung
  TGI: 15.3 µM
LOX IMVI melanoma
  TGI: 18.4 µM
SW-620 colon
  TGI: 20.2 µM
CCRF-CEM leukemia
  TGI: > 40.1 µM
CAKI-1 renal
  TGI: 10.5 µM
MDA-MB-435
  TGI: 16.9 µM
SF-539 CNS
  TGI: 3.03 µM
HOP-92 NSCLC
  TGI: 9.87 µM
MCF7 breast
  TGI: 0.703 µM
RPMI-8226 leukemia
  TGI: > 20.6 µM
SK-OV-3 ovarian
  TGI: 16 µM
HCT-15 colon
  TGI: 15 µM
SF-295 CNS
  TGI: 9.59 µM
SR leukemia
  TGI: 5.57 µM
HL-60(TB) leukemia
  TGI: 1.9 µM
A498 renal
  TGI: 16 µM
IGROV1 ovarian
  TGI: 17.2 µM
HT29 colon
  TGI: 23.6 µM
MALME-3M melanoma
  TGI: 11 µM
UACC-257 melanoma
  TGI: 2.44 µM
NCI-H23 lung
  TGI: 16.4 µM
